{
  "source": "ChEMBL document CHEMBL1201862",
  "about": "“PubChem BioAssay data set” (2004)",
  "key": {"[1]": {"biological_target": "Endoplasmic reticulum aminopeptidase 1 (Homo sapiens, UniProt Q9NZ08)", "sequence (Q9NZ08 whole entry)": "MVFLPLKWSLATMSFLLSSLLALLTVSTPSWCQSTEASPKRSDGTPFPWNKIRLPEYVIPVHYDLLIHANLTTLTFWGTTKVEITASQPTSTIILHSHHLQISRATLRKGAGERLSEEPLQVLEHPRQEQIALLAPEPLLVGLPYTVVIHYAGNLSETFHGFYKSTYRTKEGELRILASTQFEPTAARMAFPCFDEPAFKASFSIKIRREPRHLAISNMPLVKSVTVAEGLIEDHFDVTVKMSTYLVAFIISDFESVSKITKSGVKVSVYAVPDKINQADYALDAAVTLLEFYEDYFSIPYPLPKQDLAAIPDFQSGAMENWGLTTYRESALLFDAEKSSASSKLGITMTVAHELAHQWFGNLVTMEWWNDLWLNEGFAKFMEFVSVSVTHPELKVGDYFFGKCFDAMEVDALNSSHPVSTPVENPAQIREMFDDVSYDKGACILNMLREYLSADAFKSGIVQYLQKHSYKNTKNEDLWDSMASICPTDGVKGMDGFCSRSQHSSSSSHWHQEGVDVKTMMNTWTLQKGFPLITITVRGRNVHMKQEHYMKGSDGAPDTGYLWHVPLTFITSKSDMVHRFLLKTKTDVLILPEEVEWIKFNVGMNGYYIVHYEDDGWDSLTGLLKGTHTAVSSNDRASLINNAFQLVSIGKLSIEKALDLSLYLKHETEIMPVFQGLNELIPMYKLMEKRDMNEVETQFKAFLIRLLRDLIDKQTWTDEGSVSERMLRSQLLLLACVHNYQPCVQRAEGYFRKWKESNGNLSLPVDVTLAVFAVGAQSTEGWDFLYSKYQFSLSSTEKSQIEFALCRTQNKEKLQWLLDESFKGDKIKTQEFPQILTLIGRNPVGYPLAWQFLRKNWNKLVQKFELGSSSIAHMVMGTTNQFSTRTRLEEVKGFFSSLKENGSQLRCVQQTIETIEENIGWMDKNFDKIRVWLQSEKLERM", "assay": "inhibition of human ERAP1 enzyme activity – biochemical, cherry-pick, set 2, plate reader, dose response (AID 743314)"}, "[2]": {"biological_target": "Induced myeloid leukemia cell differentiation protein Mcl-1 (Homo sapiens, UniProt Q07820)", "sequence (Q07820 whole entry)": "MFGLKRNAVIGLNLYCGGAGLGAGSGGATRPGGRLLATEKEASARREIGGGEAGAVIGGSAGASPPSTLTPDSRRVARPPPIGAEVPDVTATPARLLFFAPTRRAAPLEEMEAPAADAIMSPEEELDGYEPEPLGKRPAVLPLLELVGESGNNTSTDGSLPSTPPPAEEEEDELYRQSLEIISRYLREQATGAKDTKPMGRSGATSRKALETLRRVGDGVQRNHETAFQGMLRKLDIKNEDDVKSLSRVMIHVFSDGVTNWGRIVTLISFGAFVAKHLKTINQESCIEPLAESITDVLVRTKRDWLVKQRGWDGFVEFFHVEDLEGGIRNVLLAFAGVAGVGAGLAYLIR", "assay_type": "functional"}, "[3]": {"biological_target": "Disintegrin and metalloproteinase domain-containing protein 17 (Homo sapiens, UniProt P78536)", "assay": "exosite inhibitors of ADAM17, dose response, biochemical (AID 743260)"}, "[4]": {"assay": "inhibition of ADAM10 peptide cleavage – biochemical, FRET peptide substrate, recombinant human ADAM10, selectivity assay for ADAM17 exosite inhibitor project, dose response (AID 743259)"}, "fMet-Leu-Phe receptor": {"biological_target": "fMet-Leu-Phe receptor (Homo sapiens, UniProt P21462)", "sequence (P21462 whole entry)": "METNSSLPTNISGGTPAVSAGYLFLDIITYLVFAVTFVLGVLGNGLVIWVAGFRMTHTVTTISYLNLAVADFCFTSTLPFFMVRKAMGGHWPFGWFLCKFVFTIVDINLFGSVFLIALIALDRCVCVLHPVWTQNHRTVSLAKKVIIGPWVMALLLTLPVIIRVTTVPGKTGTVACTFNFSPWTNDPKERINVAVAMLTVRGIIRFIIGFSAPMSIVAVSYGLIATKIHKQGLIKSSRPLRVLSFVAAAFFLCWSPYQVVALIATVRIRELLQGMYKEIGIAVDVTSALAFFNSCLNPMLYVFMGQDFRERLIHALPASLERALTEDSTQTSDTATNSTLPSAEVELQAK", "assay": "formyl peptide receptor binders – dose response (AID 519)", "assay_type": "functional"}, "[5]": {"biological_target": "T1, Corticotropin-releasing factor receptor 2/Corticotropin-releasing factor-binding protein (Homo sapiens, UniProt P24387+Q13324)", "T1 sequence (Q13324 whole entry)": "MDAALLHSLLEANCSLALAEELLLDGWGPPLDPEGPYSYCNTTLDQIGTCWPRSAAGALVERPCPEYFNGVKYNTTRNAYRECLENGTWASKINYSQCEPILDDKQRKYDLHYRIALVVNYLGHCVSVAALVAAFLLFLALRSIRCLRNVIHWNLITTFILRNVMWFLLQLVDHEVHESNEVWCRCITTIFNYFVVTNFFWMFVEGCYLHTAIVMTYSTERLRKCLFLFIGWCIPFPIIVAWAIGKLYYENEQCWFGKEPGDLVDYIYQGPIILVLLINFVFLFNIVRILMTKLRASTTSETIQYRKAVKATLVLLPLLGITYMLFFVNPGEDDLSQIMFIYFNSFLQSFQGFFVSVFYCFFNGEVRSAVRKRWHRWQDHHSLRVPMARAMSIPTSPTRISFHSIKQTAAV", "T1 sequence (P24387 whole entry)": "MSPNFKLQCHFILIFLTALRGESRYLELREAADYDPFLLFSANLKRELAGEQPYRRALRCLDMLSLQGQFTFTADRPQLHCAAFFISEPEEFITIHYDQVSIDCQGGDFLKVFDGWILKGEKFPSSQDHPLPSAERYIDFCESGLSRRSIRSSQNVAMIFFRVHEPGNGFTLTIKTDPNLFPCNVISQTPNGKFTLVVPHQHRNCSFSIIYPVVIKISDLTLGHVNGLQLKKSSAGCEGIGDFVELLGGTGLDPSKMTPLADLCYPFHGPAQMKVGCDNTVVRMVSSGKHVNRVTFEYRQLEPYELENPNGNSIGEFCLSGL", "assay": "Dose Response confirmation of uHTS hits for small molecule antagonists of the CRF-binding protein and CRF-R2 receptor complex.", "assay_type": "functional", "settings": "read-out: IC50_Mean"}, "[6]": {"biological_target": "DNA (cytosine-5)-methyltransferase 1 (Homo sapiens, UniProt P26358)", "assay": "inhibition of DNA methylation by DNMT1 – biochemical, fluorescent molecular beacon, confirmation (AID 602386)", "assay_type": "functional"}, "[7]": {"biological_target": "T1, Corticotropin-releasing factor receptor 2/Corticotropin-releasing factor-binding protein", "assay": "activators of CRF receptor 2 with binding protein – uHTS hits, confirmation (AID 602473)", "assay_type": "functional", "settings": "read-out: EC50_Mean"}, "[8]": {"biological_target": "T2, Small ubiquitin-related modifier 2 (Homo sapiens, UniProt P61956)", "T2 sequence (P61956 whole entry)": "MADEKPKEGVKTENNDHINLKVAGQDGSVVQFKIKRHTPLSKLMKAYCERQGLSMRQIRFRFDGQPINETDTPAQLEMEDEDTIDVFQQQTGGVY", "assay": "disruption of SUMO2 interaction with SIM peptide – biochemical, fluorescence polarization, uHTS hits, selectivity assay for SUMO1 interaction inhibitor project, dose response (AID 624385)", "assay_type": "functional", "settings": "read-out: IC50_Mean"}, "[9]": {"assay": "blockers of CRF-binding protein–CRF-R2 complex – cell-based, uHTS hits, 384-well, dose response (AID 651639)", "assay_type": "functional, Homo sapiens", "settings": "read-out: IC50_Mean"}, "[10]": {"biological_target": "T3, Small ubiquitin-related modifier 1 (Homo sapiens, UniProt P63165)", "T3 sequence (P63165 whole entry)": "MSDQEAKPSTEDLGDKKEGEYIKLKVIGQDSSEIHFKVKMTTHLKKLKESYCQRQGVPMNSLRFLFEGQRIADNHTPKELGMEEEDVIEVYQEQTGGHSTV", "assay": "SUMO1 protein interaction blockers, potency – biochemical, fluorescence polarization, uHTS hits, dose response (AID 624382)", "assay_type": "functional", "settings": "read-out: IC50_Mean"}, "[11]": {"biological_target": "T2, Small ubiquitin-related modifier 2", "assay": "SUMO2 binding disruption by SUMO1 hits – biochemical, FRET, human SUMO2, uHTS hits, selectivity assay for SUMO1 interaction inhibitor project, dose response (AID 624384)", "assay_type": "functional", "settings": "read-out: IC50_Mean"}, "Fatty acid synthase [12]": {"biological_target": "T4, Fatty acid synthase (Homo sapiens, UniProt P49327)", "T4 sequence (P49327 whole entry)": "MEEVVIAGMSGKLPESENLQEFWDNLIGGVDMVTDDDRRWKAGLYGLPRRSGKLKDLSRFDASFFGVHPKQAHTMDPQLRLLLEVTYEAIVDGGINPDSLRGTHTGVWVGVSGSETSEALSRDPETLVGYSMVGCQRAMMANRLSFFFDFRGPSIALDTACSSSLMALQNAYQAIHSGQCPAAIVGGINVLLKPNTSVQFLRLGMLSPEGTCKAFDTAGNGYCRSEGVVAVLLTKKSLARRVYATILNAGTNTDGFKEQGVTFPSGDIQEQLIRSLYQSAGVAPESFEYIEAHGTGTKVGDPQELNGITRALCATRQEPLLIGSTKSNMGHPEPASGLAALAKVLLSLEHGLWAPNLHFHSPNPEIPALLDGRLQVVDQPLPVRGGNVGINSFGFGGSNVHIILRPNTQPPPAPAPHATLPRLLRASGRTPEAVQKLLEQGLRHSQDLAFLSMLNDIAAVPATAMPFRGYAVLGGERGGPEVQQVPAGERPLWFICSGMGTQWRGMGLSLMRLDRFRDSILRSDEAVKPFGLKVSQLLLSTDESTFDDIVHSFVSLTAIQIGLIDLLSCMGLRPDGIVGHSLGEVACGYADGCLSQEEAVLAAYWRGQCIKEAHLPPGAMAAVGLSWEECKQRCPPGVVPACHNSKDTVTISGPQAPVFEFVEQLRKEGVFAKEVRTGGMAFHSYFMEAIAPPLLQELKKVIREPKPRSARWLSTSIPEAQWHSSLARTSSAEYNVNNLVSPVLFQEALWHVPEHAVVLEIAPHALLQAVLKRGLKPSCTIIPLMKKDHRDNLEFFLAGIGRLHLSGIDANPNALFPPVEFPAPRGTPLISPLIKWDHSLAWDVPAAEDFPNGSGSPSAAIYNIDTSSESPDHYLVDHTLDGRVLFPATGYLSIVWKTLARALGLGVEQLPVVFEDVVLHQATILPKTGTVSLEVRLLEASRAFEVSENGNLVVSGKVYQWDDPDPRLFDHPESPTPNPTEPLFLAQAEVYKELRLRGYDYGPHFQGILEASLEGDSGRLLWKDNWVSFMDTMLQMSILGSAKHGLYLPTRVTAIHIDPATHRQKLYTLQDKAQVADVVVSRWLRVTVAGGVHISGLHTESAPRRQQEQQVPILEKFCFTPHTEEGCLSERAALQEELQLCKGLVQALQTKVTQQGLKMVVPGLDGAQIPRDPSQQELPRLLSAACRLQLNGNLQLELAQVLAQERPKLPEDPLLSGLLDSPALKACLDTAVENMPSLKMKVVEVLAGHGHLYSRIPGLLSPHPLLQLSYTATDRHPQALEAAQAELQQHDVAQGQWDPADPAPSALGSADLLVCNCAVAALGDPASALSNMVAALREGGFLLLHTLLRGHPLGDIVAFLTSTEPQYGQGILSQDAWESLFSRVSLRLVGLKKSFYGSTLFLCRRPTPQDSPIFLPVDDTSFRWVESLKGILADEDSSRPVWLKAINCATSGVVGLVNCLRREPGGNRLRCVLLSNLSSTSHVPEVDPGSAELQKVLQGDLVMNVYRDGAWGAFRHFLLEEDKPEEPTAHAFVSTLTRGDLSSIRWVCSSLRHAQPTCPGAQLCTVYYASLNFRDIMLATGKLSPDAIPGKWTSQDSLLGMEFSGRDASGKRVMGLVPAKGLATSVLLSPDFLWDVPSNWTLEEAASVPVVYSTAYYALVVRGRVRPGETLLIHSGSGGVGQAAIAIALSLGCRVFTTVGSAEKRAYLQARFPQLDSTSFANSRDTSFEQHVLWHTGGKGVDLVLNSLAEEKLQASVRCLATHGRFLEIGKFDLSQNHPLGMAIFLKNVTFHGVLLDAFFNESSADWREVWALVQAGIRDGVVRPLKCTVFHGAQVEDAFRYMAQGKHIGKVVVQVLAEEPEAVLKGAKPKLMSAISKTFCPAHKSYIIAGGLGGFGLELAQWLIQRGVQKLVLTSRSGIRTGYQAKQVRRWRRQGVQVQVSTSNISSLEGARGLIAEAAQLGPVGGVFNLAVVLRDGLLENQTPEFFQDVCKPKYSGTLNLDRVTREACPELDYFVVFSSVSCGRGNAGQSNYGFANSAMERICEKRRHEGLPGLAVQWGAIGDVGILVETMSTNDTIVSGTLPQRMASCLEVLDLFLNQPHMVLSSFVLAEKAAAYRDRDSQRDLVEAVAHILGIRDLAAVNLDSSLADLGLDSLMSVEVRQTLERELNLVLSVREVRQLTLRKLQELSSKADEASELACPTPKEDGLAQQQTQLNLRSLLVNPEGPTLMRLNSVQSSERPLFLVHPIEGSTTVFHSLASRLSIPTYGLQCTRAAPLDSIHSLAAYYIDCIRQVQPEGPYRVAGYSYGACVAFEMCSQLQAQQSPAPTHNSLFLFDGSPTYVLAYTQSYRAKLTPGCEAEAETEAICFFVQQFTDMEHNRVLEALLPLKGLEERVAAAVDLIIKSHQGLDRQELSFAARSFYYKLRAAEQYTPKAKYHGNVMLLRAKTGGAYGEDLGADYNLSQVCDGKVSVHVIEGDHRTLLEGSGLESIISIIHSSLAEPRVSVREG", "assay": "inhibition of human FAS-TE enzyme activity – biochemical, endpoint fluorescence intensity, uHTS hits, dose response (AID 624327);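 also: fluorescence from hydrolysis of an O-methyl fluorescein acyl ester substrate by the enzyme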", "assay_type": "functional"}, "[13]": {"biological_target": "T3, Small ubiquitin-related modifier 1", "assay": "SUMO1 protein-protein binding blockers, potency – biochemical, FRET, dose response (AID 624383)", "assay_type": "functional", "settings": "read-out: IC50_Mean"}, "Fatty acid synthase [14]": {"biological_target": "T4, Fatty acid synthase", "assay": "inhibition of human FAS-TE enzyme activity – biochemical, kinetic fluorescence intensity, dose response (AID 624326);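 also: rate of fluorescence rise from hydrolysis of a fluorogenic O-methyl fluorescein ester substrate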", "assay_type": "functional"}, "[15]": {"biological_target": "NAD-dependent protein deacylase sirtuin-5, mitochondrial (Homo sapiens, UniProt Q9NXA8)", "sequence (Q9NXA8 whole entry)": "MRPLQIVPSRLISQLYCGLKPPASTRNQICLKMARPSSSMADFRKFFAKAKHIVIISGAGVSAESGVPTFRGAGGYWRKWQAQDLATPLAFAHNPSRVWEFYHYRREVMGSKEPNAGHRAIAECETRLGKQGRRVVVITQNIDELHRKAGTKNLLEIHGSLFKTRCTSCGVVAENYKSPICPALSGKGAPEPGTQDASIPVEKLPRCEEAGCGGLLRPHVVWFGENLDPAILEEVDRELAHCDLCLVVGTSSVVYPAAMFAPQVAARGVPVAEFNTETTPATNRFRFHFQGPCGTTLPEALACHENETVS", "assay": "sirtuin-5 deacylation blockers, concentration series – biochemical, fluorescence imaging, cherry-pick, set 5, dose response (AID 720591);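 also: desuccinylation of succinyl peptide AMC substrate read as fluorescence after trypsin release; potency of inhibitors that lower fluorescence and may act on trypsin instead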"}, "[16]": {"biological_target": "T5, Methionyl-tRNA synthetase, putative (Trypanosoma brucei brucei, UniProt Q38C91)", "T5 sequence (Q38C91 whole entry)": "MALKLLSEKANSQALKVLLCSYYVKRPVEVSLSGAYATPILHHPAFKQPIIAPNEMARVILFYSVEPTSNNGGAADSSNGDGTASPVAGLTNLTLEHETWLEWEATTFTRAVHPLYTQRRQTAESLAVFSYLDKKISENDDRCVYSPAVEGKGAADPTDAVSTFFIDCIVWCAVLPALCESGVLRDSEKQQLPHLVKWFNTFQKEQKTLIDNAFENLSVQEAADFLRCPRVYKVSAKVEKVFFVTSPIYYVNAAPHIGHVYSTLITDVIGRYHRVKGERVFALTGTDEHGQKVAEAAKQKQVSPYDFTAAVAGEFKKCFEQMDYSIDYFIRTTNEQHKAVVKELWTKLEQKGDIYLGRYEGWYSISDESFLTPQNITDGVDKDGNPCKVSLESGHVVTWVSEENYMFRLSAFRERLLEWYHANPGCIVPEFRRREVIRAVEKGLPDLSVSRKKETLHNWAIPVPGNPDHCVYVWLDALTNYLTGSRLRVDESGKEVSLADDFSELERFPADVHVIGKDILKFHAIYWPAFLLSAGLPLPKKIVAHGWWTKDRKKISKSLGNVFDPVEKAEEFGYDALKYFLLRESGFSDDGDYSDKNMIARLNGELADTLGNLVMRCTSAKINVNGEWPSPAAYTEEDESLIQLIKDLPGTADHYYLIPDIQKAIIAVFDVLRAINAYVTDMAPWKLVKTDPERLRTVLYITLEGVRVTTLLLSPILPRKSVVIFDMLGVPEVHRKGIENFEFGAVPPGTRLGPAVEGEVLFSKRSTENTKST", "assay_type": "functional, Trypanosoma brucei brucei strain 927/4 GUTat10.1"}, "[17]": {"assay": "Counterscreen for inhibitors of Trypanosoma brucei methionyl tRNA synthetase (MetRS): Luminescence-based cell-based high throughput dose response assay to identify compounds that are cytotoxic to Jurkat human T lymphocyte cells.", "assay_type": "functional"}, "[18]": {"biological_target": "T5, Methionyl-tRNA synthetase, putative", "assay_type": "functional, Trypanosoma brucei brucei strain 927/4 GUTat10.1", "remark": "listed apart in the source"}, "[19]": {"assay": "Late stage counterscreen for inhibitors of Trypanosoma brucei methionyl tRNA synthetase (MetRS): Luminescence-based cell-based high throughput dose response assay to identify compounds that are cytotoxic to Jurkat human T lymphocyte cells.", "assay_type": "functional"}},
  "note": "The source made the active and inactive calls.",
  "data": [
    {"smiles": "O=c1ccc2cc(O[C@@H]3O[C@@H](CO)[C@H](O)[C@@H](O)[C@@H]3O)c(O)cc2o1", "values": [
      {"measurement": "AC50", "setting": "[1]", "value": "2.37 µM (active)"}
    ]},
    {"smiles": "CN(C)c1ccc(NC(=O)c2ccc(COc3cccc(Cl)c3)o2)cc1", "values": [
      {"measurement": "IC50", "setting": "[2]", "value": "23.4 µM (active)"},
      {"measurement": "IC50", "setting": "[3]", "value": "> 69.5 µM (inactive)"},
      {"measurement": "IC50", "setting": "[4]", "value": "8.25 µM (active)"}
    ]},
    {"smiles": "CCCc1nc2ccccc2c2nc(N)nn12", "values": [
      {"measurement": "Ki", "setting": "fMet-Leu-Phe receptor", "value": "> 66.7 µM (inactive)"}
    ]},
    {"smiles": "COc1cc(CCc2ccccc2)c(C(=O)O)c(O)c1C/C=C(/C)CCC=C(C)C", "values": [
      {"measurement": "IC50", "setting": "[5]", "value": "< 0.368 µM (active)"},
      {"measurement": "IC50", "setting": "[6]", "value": "3.5 µM (active)"},
      {"measurement": "EC50", "setting": "[7]", "value": "> 53 µM (inactive)"},
      {"measurement": "IC50", "setting": "[8]", "value": "28.8 µM (inactive)"},
      {"measurement": "IC50", "setting": "[9]", "value": "3.79 µM (active)"},
      {"measurement": "IC50", "setting": "[10]", "value": "17.8 µM (active)"},
      {"measurement": "IC50", "setting": "[11]", "value": "15.5 µM (active)"},
      {"measurement": "IC50", "setting": "Fatty acid synthase [12]", "value": "8.25 µM (active)"},
      {"measurement": "IC50", "setting": "[13]", "value": "14.4 µM (active)"},
      {"measurement": "IC50", "setting": "Fatty acid synthase [14]", "value": "8.42 µM (active)"},
      {"measurement": "AC50", "setting": "[15]", "value": "15.7 µM (active)"}
    ]},
    {"smiles": "Cc1ccc(NC(=O)CN(C)C(=O)CCSc2ccc(F)cc2)cc1", "values": [
      {"measurement": "IC50", "setting": "[16]", "value": "4.57 µM (active)"},
      {"measurement": "IC50", "setting": "[17]", "value": "83.3 µM (inactive)"},
      {"measurement": "IC50", "setting": "[18]", "value": "3.09 µM (active)"},
      {"measurement": "IC50", "setting": "[19]", "value": "> 83.3 µM (inactive)"}
    ]}
  ]
}
